# According to the supplement of paper PMC4862054:
# Tested on: Hs578T
# Test: normalised viability (% of control), CellTiter-Blue; higher = more viable cells (about 100 = DMSO control)
# Conditions: 10 nM; incubation time: 72 h
# Summary of the method: (§1)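 Vehicle (100) and a positive kill control (0) anchored the normalisation of each plate, and Z'-factor was used for quality control. Breast cancer cell lines in 20 µl suspension were incubated 72 h over compound in 5 µl medium in 384-well plates, followed by CellTiter-Blue at 560/590 nm. The value is normalised viability at a single listed concentration of the series.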
row,Structure (SMILES),normalised viability [%]
1,O=C(/C=C/c1cccc(S(=O)(=O)Nc2ccccc2)c1)NO [Belinostat],114
2,C=C1C[C@@H]2[C@H](CC[C@]3(C)C(=O)CC[C@@H]23)[C@@]2(C)C=CC(=O)C=C12 [Exemestane],112

# Same assay, conditions: 40 nM; incubation time: 72 h
row,Structure (SMILES),normalised viability [%]
1,O=P1(N(CCCl)CCCl)NCCCO1 (stereo unspecified) [Cyclophosphamide],107

# Same assay, conditions: 1000 nM; incubation time: 72 h
row,Structure (SMILES),normalised viability [%]
1,Cc1cc(Nc2cc(CN3CCOCC3)c3nc(C)c(Cc4ccc(Cl)cc4F)n3n2)n[nH]1,81.6
2,N#Cc1ccc(COC[C@H]2O[C@@H](n3c(NCc4ccc(Cl)c(Cl)c4)nc4c(N)ncnc43)[C@H](O)[C@@H]2O)cc1,99.3
3,COc1cc(OC2CCN(C)CC2)ccc1Nc1ncc2c(n1)n(C1CCCC1)c(=O)n2C [AZ 3146],109
4,CN(C)c1nc(N(C)C)nc(N(C)C)n1 [Altretamine],96.9
5,COC(=O)c1ccc2c(c1)NC(=O)/C2=C(\Nc1ccc(N(C)C(=O)CN2CCN(C)CC2)cc1)c1ccccc1 [BIBF 1120],111
6,Nc1cc(C(F)(F)F)c(-c2cc(N3CCOCC3)nc(N3CCOCC3)n2)cn1 [BKM-120],88.7
7,O=C(/C=C/c1cccc(S(=O)(=O)Nc2ccccc2)c1)NO [Belinostat],74.7
8,C=C1C[C@@H]2[C@H](CC[C@]3(C)C(=O)CC[C@@H]23)[C@@]2(C)C=CC(=O)C=C12 [Exemestane],110

# Same assay, conditions: 4000 nM; incubation time: 72 h
row,Structure (SMILES),normalised viability [%]
1,O=P1(N(CCCl)CCCl)NCCCO1 (stereo unspecified) [Cyclophosphamide],108

# Same assay, conditions: 10000 nM; incubation time: 72 h
row,Structure (SMILES),normalised viability [%]
1,Cc1cc(Nc2cc(CN3CCOCC3)c3nc(C)c(Cc4ccc(Cl)cc4F)n3n2)n[nH]1,2.66
2,N#Cc1ccc(COC[C@H]2O[C@@H](n3c(NCc4ccc(Cl)c(Cl)c4)nc4c(N)ncnc43)[C@H](O)[C@@H]2O)cc1,73.8
3,COc1cc(OC2CCN(C)CC2)ccc1Nc1ncc2c(n1)n(C1CCCC1)c(=O)n2C [AZ 3146],80.1
4,CN(C)c1nc(N(C)C)nc(N(C)C)n1 [Altretamine],102
5,COC(=O)c1ccc2c(c1)NC(=O)/C2=C(\Nc1ccc(N(C)C(=O)CN2CCN(C)CC2)cc1)c1ccccc1 [BIBF 1120],34
6,Nc1cc(C(F)(F)F)c(-c2cc(N3CCOCC3)nc(N3CCOCC3)n2)cn1 [BKM-120],9.62
7,O=C(/C=C/c1cccc(S(=O)(=O)Nc2ccccc2)c1)NO [Belinostat],7.02
8,C=C1C[C@@H]2[C@H](CC[C@]3(C)C(=O)CC[C@@H]23)[C@@]2(C)C=CC(=O)C=C12 [Exemestane],100

# Same assay, conditions: 40000 nM; incubation time: 72 h
row,Structure (SMILES),normalised viability [%]
1,O=P1(N(CCCl)CCCl)NCCCO1 (stereo unspecified) [Cyclophosphamide],112

# Tested on: MDA-MB-231
# Test: as above
# Conditions: 10 nM; incubation time: 72 h
# Summary of the method: as §1
row,Structure (SMILES),normalised viability [%]
1,Cc1cc(Nc2cc(CN3CCOCC3)c3nc(C)c(Cc4ccc(Cl)cc4F)n3n2)n[nH]1,102
2,N#Cc1ccc(COC[C@H]2O[C@@H](n3c(NCc4ccc(Cl)c(Cl)c4)nc4c(N)ncnc43)[C@H](O)[C@@H]2O)cc1,128
3,COc1cc(OC2CCN(C)CC2)ccc1Nc1ncc2c(n1)n(C1CCCC1)c(=O)n2C [AZ 3146],96.5
4,CN(C)c1nc(N(C)C)nc(N(C)C)n1 [Altretamine],99.7
5,COC(=O)c1ccc2c(c1)NC(=O)/C2=C(\Nc1ccc(N(C)C(=O)CN2CCN(C)CC2)cc1)c1ccccc1 [BIBF 1120],97.6
6,Nc1cc(C(F)(F)F)c(-c2cc(N3CCOCC3)nc(N3CCOCC3)n2)cn1 [BKM-120],94.2
7,O=C(/C=C/c1cccc(S(=O)(=O)Nc2ccccc2)c1)NO [Belinostat],96.1
8,C=C1C[C@@H]2[C@H](CC[C@]3(C)C(=O)CC[C@@H]23)[C@@]2(C)C=CC(=O)C=C12 [Exemestane],101

# Same assay, conditions: 40 nM; incubation time: 72 h
row,Structure (SMILES),normalised viability [%]
1,O=P1(N(CCCl)CCCl)NCCCO1 (stereo unspecified) [Cyclophosphamide],101

# Same assay, conditions: 1000 nM; incubation time: 72 h
row,Structure (SMILES),normalised viability [%]
1,Cc1cc(Nc2cc(CN3CCOCC3)c3nc(C)c(Cc4ccc(Cl)cc4F)n3n2)n[nH]1,83.6
2,N#Cc1ccc(COC[C@H]2O[C@@H](n3c(NCc4ccc(Cl)c(Cl)c4)nc4c(N)ncnc43)[C@H](O)[C@@H]2O)cc1,77.3
3,COc1cc(OC2CCN(C)CC2)ccc1Nc1ncc2c(n1)n(C1CCCC1)c(=O)n2C [AZ 3146],82.3
4,CN(C)c1nc(N(C)C)nc(N(C)C)n1 [Altretamine],90.9
5,COC(=O)c1ccc2c(c1)NC(=O)/C2=C(\Nc1ccc(N(C)C(=O)CN2CCN(C)CC2)cc1)c1ccccc1 [BIBF 1120],120
6,Nc1cc(C(F)(F)F)c(-c2cc(N3CCOCC3)nc(N3CCOCC3)n2)cn1 [BKM-120],69.1
7,O=C(/C=C/c1cccc(S(=O)(=O)Nc2ccccc2)c1)NO [Belinostat],40.7
8,C=C1C[C@@H]2[C@H](CC[C@]3(C)C(=O)CC[C@@H]23)[C@@]2(C)C=CC(=O)C=C12 [Exemestane],98.1

# Same assay, conditions: 4000 nM; incubation time: 72 h
row,Structure (SMILES),normalised viability [%]
1,O=P1(N(CCCl)CCCl)NCCCO1 (stereo unspecified) [Cyclophosphamide],96.9

# Same assay, conditions: 10000 nM; incubation time: 72 h
row,Structure (SMILES),normalised viability [%]
1,Cc1cc(Nc2cc(CN3CCOCC3)c3nc(C)c(Cc4ccc(Cl)cc4F)n3n2)n[nH]1,18.7
2,N#Cc1ccc(COC[C@H]2O[C@@H](n3c(NCc4ccc(Cl)c(Cl)c4)nc4c(N)ncnc43)[C@H](O)[C@@H]2O)cc1,57.2
3,COc1cc(OC2CCN(C)CC2)ccc1Nc1ncc2c(n1)n(C1CCCC1)c(=O)n2C [AZ 3146],45.8
4,CN(C)c1nc(N(C)C)nc(N(C)C)n1 [Altretamine],106
5,COC(=O)c1ccc2c(c1)NC(=O)/C2=C(\Nc1ccc(N(C)C(=O)CN2CCN(C)CC2)cc1)c1ccccc1 [BIBF 1120],2.46
6,Nc1cc(C(F)(F)F)c(-c2cc(N3CCOCC3)nc(N3CCOCC3)n2)cn1 [BKM-120],15.3
7,O=C(/C=C/c1cccc(S(=O)(=O)Nc2ccccc2)c1)NO [Belinostat],7.79
8,C=C1C[C@@H]2[C@H](CC[C@]3(C)C(=O)CC[C@@H]23)[C@@]2(C)C=CC(=O)C=C12 [Exemestane],124

# Same assay, conditions: 40000 nM; incubation time: 72 h
row,Structure (SMILES),normalised viability [%]
1,O=P1(N(CCCl)CCCl)NCCCO1 (stereo unspecified) [Cyclophosphamide],96.9

# Tested on: MDA-MB-436
# Test: as above
# Conditions: 10 nM; incubation time: 72 h
# Summary of the method: as §1
row,Structure (SMILES),normalised viability [%]
1,Cc1cc(Nc2cc(CN3CCOCC3)c3nc(C)c(Cc4ccc(Cl)cc4F)n3n2)n[nH]1,109
2,N#Cc1ccc(COC[C@H]2O[C@@H](n3c(NCc4ccc(Cl)c(Cl)c4)nc4c(N)ncnc43)[C@H](O)[C@@H]2O)cc1,95.2
3,COc1cc(OC2CCN(C)CC2)ccc1Nc1ncc2c(n1)n(C1CCCC1)c(=O)n2C [AZ 3146],102
4,CN(C)c1nc(N(C)C)nc(N(C)C)n1 [Altretamine],102
5,COC(=O)c1ccc2c(c1)NC(=O)/C2=C(\Nc1ccc(N(C)C(=O)CN2CCN(C)CC2)cc1)c1ccccc1 [BIBF 1120],120
6,Nc1cc(C(F)(F)F)c(-c2cc(N3CCOCC3)nc(N3CCOCC3)n2)cn1 [BKM-120],82.4
7,O=C(/C=C/c1cccc(S(=O)(=O)Nc2ccccc2)c1)NO [Belinostat],116
8,C=C1C[C@@H]2[C@H](CC[C@]3(C)C(=O)CC[C@@H]23)[C@@]2(C)C=CC(=O)C=C12 [Exemestane],112

# Same assay, conditions: 40 nM; incubation time: 72 h
row,Structure (SMILES),normalised viability [%]
1,O=P1(N(CCCl)CCCl)NCCCO1 (stereo unspecified) [Cyclophosphamide],108

# Same assay, conditions: 1000 nM; incubation time: 72 h
row,Structure (SMILES),normalised viability [%]
1,Cc1cc(Nc2cc(CN3CCOCC3)c3nc(C)c(Cc4ccc(Cl)cc4F)n3n2)n[nH]1,71.1
2,N#Cc1ccc(COC[C@H]2O[C@@H](n3c(NCc4ccc(Cl)c(Cl)c4)nc4c(N)ncnc43)[C@H](O)[C@@H]2O)cc1,84.8
3,COc1cc(OC2CCN(C)CC2)ccc1Nc1ncc2c(n1)n(C1CCCC1)c(=O)n2C [AZ 3146],94.4
4,CN(C)c1nc(N(C)C)nc(N(C)C)n1 [Altretamine],99.5
